Results taken from PubChem BioAssay AID212 (DTP/NCI, 2004).
Where “and” joins values, the source holds several entries; their conditions need not be identical. Equal entries are not always repeated. Inconclusive results are not listed.

Tested on: BDF1 mice, colon carcinoma 38 sc, T/C %
Assay: NCI In Vivo Anticancer Drug Screen. Data for tumor model Colon Carcinoma 38 (subcutaneous) in B6D2F1 (BDF1) mice
Settings: endpoint: median tumor weight (est.), higher = larger tumour
Method in brief: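 Transplantable tumor in mice; compound-treated vs vehicle-dosed controls. Measured survival or tumor size; value = T ÷ C.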

COC1=C(C)C(=O)C2=C(C1=O)C1C3CC4=C(C(=O)C(OC)=C(C)C4=O)C(CNC(=O)C(C)=O)N3C(C#N)C(C2)N1C (centres undefined)
T/C (dose: 0.16 mg/kg/injection, schedule: Q07DX002 (ip), vehicle: Klucel (hydroxypropylcellulose) (HPC)): 56 % of control | T/C (dose: 0.25 mg/kg/injection, schedule: Q07DX002 (ip), vehicle: Klucel (hydroxypropylcellulose) (HPC)): 98 % of control | T/C (dose: 0.31 mg/kg/injection, schedule: Q07DX002 (ip), vehicle: Klucel (hydroxypropylcellulose) (HPC)): 84 % of control | T/C (dose: 0.5 mg/kg/injection, schedule: Q07DX002 (ip), vehicle: Klucel (hydroxypropylcellulose) (HPC)): 84 % of control | T/C (dose: 0.62 mg/kg/injection, schedule: Q07DX002 (ip), vehicle: Klucel (hydroxypropylcellulose) (HPC)): 80 % of control | T/C (dose: 1.0 mg/kg/injection, schedule: Q07DX002 (ip), vehicle: Klucel (hydroxypropylcellulose) (HPC)): 87 % of control | T/C (dose: 1.25 mg/kg/injection, schedule: Q07DX002 (ip), vehicle: Klucel (hydroxypropylcellulose) (HPC)): 53 % of control and 73 % of control | T/C (dose: 2.0 mg/kg/injection, schedule: Q07DX002 (ip), vehicle: Klucel (hydroxypropylcellulose) (HPC)): 72 % of control | T/C (dose: 4.0 mg/kg/injection, schedule: Q07DX002 (ip), vehicle: Klucel (hydroxypropylcellulose) (HPC)): 77 % of control

O=C1C2(Cl)C3(Cl)C4(Cl)C(Cl)(Cl)C5(Cl)[C@]3(Cl)C1(Cl)[C@]5(Cl)C24Cl (some centres undefined)
T/C (dose: 25.0 mg/kg/injection, schedule: Q07DX002 (ip), vehicle: Klucel (hydroxypropylcellulose) (HPC)): 88 % of control | T/C (dose: 50.0 mg/kg/injection, schedule: Q07DX002 (ip), vehicle: Klucel (hydroxypropylcellulose) (HPC)): 75 % of control | T/C (dose: 100.0 mg/kg/injection, schedule: Q07DX002 (ip), vehicle: Klucel (hydroxypropylcellulose) (HPC)): 44 % of control

NC(=S)Nc1cccc2ccccc12
T/C (dose: 6.25 mg/kg/injection, schedule: Q07DX002 (ip), vehicle: saline with Tween-80): 164 % of control | T/C (dose: 12.5 mg/kg/injection, schedule: Q07DX002 (ip), vehicle: saline with Tween-80): 151 % of control | T/C (dose: 25.0 mg/kg/injection, schedule: Q07DX002 (ip), vehicle: saline with Tween-80): 162 % of control

Nc1ccn(C2CC(O)C(CO)O2)c(=O)n1 (centres undefined)
T/C (dose: 42.19 mg/kg/injection, schedule: Q07DX002 (ip), vehicle: water): 124 % of control | T/C (dose: 84.38 mg/kg/injection, schedule: Q07DX002 (ip), vehicle: water): 79 % of control | T/C (dose: 337.5 mg/kg/injection, schedule: Q07DX002 (ip), vehicle: water): 110 % of control

CC[n+]1c(-c2ccccc2)c2cc(N)ccc2c2ccc(N)cc21
T/C (dose: 2.5 mg/kg/injection, schedule: Q07DX002 (ip), vehicle: saline): 99 % of control | T/C (dose: 20.0 mg/kg/injection, schedule: Q07DX002 (ip), vehicle: saline): 118 % of control and 103 % of control

CNC(=O)/C=C/C1=CN2C(=O)c3ccc(C)c(O)c3NC(OC)C2C1 (centres undefined)
T/C (dose: 0.03 mg/kg/injection, schedule: Q07DX002 (ip), vehicle: saline): 119 % of control | T/C (dose: 0.06 mg/kg/injection, schedule: Q07DX002 (ip), vehicle: saline): 109 % of control | T/C (dose: 0.25 mg/kg/injection, schedule: Q07DX002 (ip), vehicle: saline): 103 % of control | T/C (dose: 0.5 mg/kg/injection, schedule: Q07DX002 (ip), vehicle: saline): 122 % of control

CC(=O)Oc1[nH]c(=O)c2cccc3c2c1CCC3
T/C (dose: 50.0 mg/kg/injection, schedule: Q07DX002 (ip), vehicle: saline with Tween-80): 161 % of control | T/C (dose: 200.0 mg/kg/injection, schedule: Q07DX002 (ip), vehicle: saline with Tween-80): 118 % of control | T/C (dose: 400.0 mg/kg/injection, schedule: Q07DX002 (ip), vehicle: saline with Tween-80): 122 % of control | T/C (dose: 1600.0 mg/kg/injection, schedule: Q07DX002 (ip), vehicle: saline with Tween-80): 118 % of control

O=C(O)C1(C(=O)O)CCC1.[NH2-].[NH2-].[Pt+2]
T/C (dose: 6.25 mg/kg/injection, schedule: Q07DX002 (ip), vehicle: dextrose): 81 % of control | T/C (dose: 6.25 mg/kg/injection, schedule: Q07DX003 (ip), vehicle: other): 53 % of control | T/C (dose: 12.5 mg/kg/injection, schedule: Q07DX003 (ip), vehicle: other): 81 % of control | T/C (dose: 25.0 mg/kg/injection, schedule: Q07DX003 (ip), vehicle: dextrose): 64 % of control | T/C (dose: 25.0 mg/kg/injection, schedule: Q07DX003 (ip), vehicle: other): 74 % of control | T/C (dose: 50.0 mg/kg/injection, schedule: Q07DX003 (ip), vehicle: dextrose): 34 % of control | T/C (dose: 50.0 mg/kg/injection, schedule: Q07DX003 (ip), vehicle: other): 42 % of control | T/C (dose: 100.0 mg/kg/injection, schedule: Q07DX003 (ip), vehicle: dextrose): 25 % of control | T/C (dose: 100.0 mg/kg/injection, schedule: Q07DX003 (ip), vehicle: other): 21 % of control

COC(=O)[C@@]12OC[C@]34[C@H]([C@@H](O)[C@@H]1O)[C@@]1(C)CC(=O)C(O)=C(C)[C@@H]1C[C@H]3OC(=O)[C@H](OC(=O)/C=C(\C)C(C)C)[C@@H]24
T/C (dose: 0.25 mg/kg/injection, schedule: Q07DX003 (ip), vehicle: other): 72 % of control | T/C (dose: 0.5 mg/kg/injection, schedule: Q07DX003 (ip), vehicle: other): 98 % of control
